Results: US20050209278A1, “Piperidinyl- and piperazinyl-sulfonylmethyl hydroxamic acids and their use as protease inhibitors” (priority 2002, published 2005)
“And” between values parts separate entries of the source, which are not always exact repeats. Equal entries are not always repeated.

Columns and labels:
MMP-2 = biological target: T1, MMP-2 (Homo sapiens, UniProt P08253); assay: In vitro MMP inhibition, Ki determination (fluorogenic substrate II); format: biochemical; conditions: value outside parentheses; read-out: MMP-2 Ki
T1 construct: made in house; host or cells: MMP-2-transfected p2AHT2 cells
T1 sequence (P08253 110-660): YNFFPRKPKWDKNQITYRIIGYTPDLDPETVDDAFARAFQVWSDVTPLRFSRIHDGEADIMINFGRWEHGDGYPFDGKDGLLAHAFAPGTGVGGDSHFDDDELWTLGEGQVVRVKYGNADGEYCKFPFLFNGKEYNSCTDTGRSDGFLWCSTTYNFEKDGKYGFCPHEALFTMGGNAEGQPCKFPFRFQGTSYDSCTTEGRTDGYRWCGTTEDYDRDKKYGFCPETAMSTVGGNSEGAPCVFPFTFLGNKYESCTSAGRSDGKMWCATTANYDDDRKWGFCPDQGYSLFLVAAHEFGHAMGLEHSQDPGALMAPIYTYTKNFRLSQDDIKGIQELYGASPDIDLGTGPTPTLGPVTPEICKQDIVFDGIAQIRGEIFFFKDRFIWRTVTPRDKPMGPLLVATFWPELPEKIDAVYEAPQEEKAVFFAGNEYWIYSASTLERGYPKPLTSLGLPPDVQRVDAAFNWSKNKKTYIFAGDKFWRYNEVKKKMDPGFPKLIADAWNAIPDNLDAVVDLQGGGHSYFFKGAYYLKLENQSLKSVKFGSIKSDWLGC

MMP-9 = biological target: T2, MMP-9 (Homo sapiens, UniProt P14780); assay: as above; format: biochemical; conditions: value outside parentheses
T2 construct: made in house; host or cells: MMP-9-transfected HT1080 cells (spent media)
T2 sequence (P14780 107-707 limits assumed): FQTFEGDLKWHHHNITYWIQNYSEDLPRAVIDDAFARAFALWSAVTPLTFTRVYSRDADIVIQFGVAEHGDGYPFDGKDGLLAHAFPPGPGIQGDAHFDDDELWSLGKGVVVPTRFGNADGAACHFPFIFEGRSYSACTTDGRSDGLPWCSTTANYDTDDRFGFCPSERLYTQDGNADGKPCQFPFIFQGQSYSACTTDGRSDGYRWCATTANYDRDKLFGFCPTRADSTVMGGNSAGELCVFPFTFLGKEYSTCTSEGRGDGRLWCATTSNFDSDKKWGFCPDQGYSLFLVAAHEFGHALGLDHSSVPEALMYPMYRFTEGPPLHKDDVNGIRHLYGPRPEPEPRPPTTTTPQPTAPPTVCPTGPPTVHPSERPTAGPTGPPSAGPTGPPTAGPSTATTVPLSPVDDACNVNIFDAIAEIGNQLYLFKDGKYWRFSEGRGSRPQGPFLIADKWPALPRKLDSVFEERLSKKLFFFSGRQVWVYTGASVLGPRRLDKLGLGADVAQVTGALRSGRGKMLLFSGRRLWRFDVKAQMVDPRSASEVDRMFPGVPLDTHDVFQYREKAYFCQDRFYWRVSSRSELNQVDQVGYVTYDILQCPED
Procedure, shortened: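 HT1080-derived MMP-9, activated with APMA, trypsin or MMP-3, incubated 1 hr at room temperature with inhibitor and 4 μM fluorogenic substrate II (at or below Km) in pH 7.5 Tris/NaCl/CaCl2 buffer; ex 330/em 420 nm. Ki from Morrison-equation regression, without substrate correction.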

## CCc1ccc(C2CCN(S(=O)(=O)C3(C(=O)NO)CCN(CCOC)CC3)CC2)s1 [Example 314]
MMP-2
  Ki: 9.1 nM
MMP-9
  Ki: 22 nM

## O=C(NO)C1(S(=O)(=O)N2CCC(N3CCN(c4ccc(Cl)cc4)CC3)CC2)CCOCC1 [Example 315]
MMP-2
  Ki: 1820 nM
MMP-9
  Ki: 4960 nM

## O=C(NO)C1(S(=O)(=O)N2CCN(c3ccc(-c4ccc(F)cc4F)cn3)CC2)CCOCC1 [Example 316]
MMP-2
  Ki: 0.73 nM
MMP-9
  Ki: 2.39 nM

## O=C(NO)C1(S(=O)(=O)N2CCN(c3ccc(-c4ccccc4F)cn3)CC2)CCOCC1 [Example 317]
MMP-2
  Ki: 0.55 nM
MMP-9
  Ki: 2.18 nM

## COc1ccccc1-c1ccc(N2CCN(S(=O)(=O)C3(C(=O)NO)CCOCC3)CC2)nc1 [Example 318]
MMP-2
  Ki: 79 nM
MMP-9
  Ki: 1380 nM

## O=C(NO)C1(S(=O)(=O)N2CCN(c3ccc(-c4cccc(OC(F)(F)F)c4)cn3)CC2)CCOCC1 [Example 319]
MMP-2
  Ki: 33.1 nM
MMP-9
  Ki: 923 nM

## O=C(NO)C1(S(=O)(=O)N2CCN(c3ccc(CCCC(F)(F)F)cc3)CC2)CCOCC1 [Example 320]
MMP-2
  Ki: 0.842 nM
MMP-9
  Ki: 1.33 nM

## O=C(NO)C1(S(=O)(=O)N2CCN(c3cnn(CCCC(F)(F)F)c(=O)c3)CC2)CCOCC1 [Example 321]
MMP-2
  Ki: > 10000 nM
MMP-9
  Ki: > 10000 nM

## O=C(NO)C1(S(=O)(=O)N2CCN(c3cnn(-c4ccccc4)c(=O)c3)CC2)CCOCC1 [Example 322]
MMP-2
  Ki: 7870 nM
MMP-9
  Ki: > 10000 nM

## CCCCc1ccc(C2CCN(S(=O)(=O)C3(C(=O)NO)CCOCC3)CC2)nc1 [Example 323]
MMP-2
  Ki: 0.5 nM

## COC(=O)c1ccc(N2CCN(S(=O)(=O)C3(C(=O)NO)CCOCC3)CC2)cc1 [Example 324]
MMP-2
  Ki: 1.22 nM
MMP-9
  Ki: 2.39 nM

## CCCCOc1ccc(N2CCN(S(=O)(=O)C3(C(=O)NO)CCN(CCOC)CC3)CC2)nc1 [Example 325]
MMP-2
  Ki: 0.18 nM
MMP-9
  Ki: 0.32 nM

## O=C(NO)C1(S(=O)(=O)N2CCN(c3ccc(OCC(F)(F)C(F)F)cc3)CC2)CCOCC1 [Example 326]
MMP-2
  Ki: 0.34 nM
MMP-9
  Ki: 2.03 nM

## O=C(NO)C1(S(=O)(=O)N2CCN(c3ccc(-c4ccc(OC(F)(F)F)cc4)cc3)CC2)CCOCC1 [Example 327]
MMP-2
  Ki: 0.97 nM
MMP-9
  Ki: 35.6 nM

## O=C(NO)C1(S(=O)(=O)N2CCN(c3ccc(-c4ccc(Cl)c(Cl)c4)cc3)CC2)CCOCC1 [Example 328]
MMP-2
  Ki: 3.58 nM
MMP-9
  Ki: 95.7 nM

## O=C(NO)C1(S(=O)(=O)N2CCN(c3cnn(-c4ccccc4)c(=O)c3Cl)CC2)CCOCC1 [Example 329]
MMP-2
  Ki: > 10000 nM
MMP-9
  Ki: > 10000 nM

## O=C(NO)C1(S(=O)(=O)N2CCC(c3ccc(OCC(F)(F)C(F)(F)F)cc3)CC2)CCOCC1 [Example 330]
MMP-2
  Ki: 1.18 nM
MMP-9
  Ki: 3.03 nM

## O=C(NO)C1(S(=O)(=O)N2CCN(c3ccc(Br)cn3)CC2)CCOCC1 [Example 331]
MMP-2
  Ki: 0.103 nM
MMP-9
  Ki: 1.7 nM

## COCCN1CCC(C(=O)NO)(S(=O)(=O)N2CCN(c3ncccn3)CC2)CC1 [Example 332]
MMP-2
  Ki: 190 nM
MMP-9
  Ki: 260 nM

## O=C(NO)C1(S(=O)(=O)N2CCN(c3ccc(OCC4CC4)c(F)c3)CC2)CCOCC1 [Example 333]
MMP-2
  Ki: 0.58 nM
MMP-9
  Ki: 1.05 nM

## CCCCc1cnc(N2CCN(S(=O)(=O)C3(C(=O)NO)CCN(CCOC)CC3)CC2)nc1 [Example 334]
MMP-2
  Ki: 5.99 nM
MMP-9
  Ki: 1.19 nM

## O=C(NO)C1(S(=O)(=O)N2CCN(c3ccc(CCC(F)(F)C(F)(F)F)cc3)CC2)CCN(C2CC2)CC1 [Example 335]
MMP-2
  Ki: 0.618 nM
MMP-9
  Ki: 0.384 nM

## O=C(NO)C1(S(=O)(=O)N2CCN(c3ccc(OCC(F)(F)C(F)F)cc3)CC2)CCOCC1 [Example 336]
MMP-2
  Ki: 0.606 nM
MMP-9
  Ki: 1.38 nM

## O=C(NO)C1(S(=O)(=O)N2CCC(c3ccc(OC(F)(F)C(F)F)cc3)CC2)CCOCC1 [Example 337]
MMP-2
  Ki: 0.427 nM
MMP-9
  Ki: 0.792 nM

## O=C(NO)C1(S(=O)(=O)N2CCC(c3ccc(CCCC(F)(F)F)cn3)CC2)CCOCC1 [Example 338]
MMP-2
  Ki: 1.09 nM
MMP-9
  Ki: 0.738 nM

## O=C(NO)C1(S(=O)(=O)N2CCC(c3ccc(CCC(F)(F)C(F)(F)F)cn3)CC2)CCOCC1 [Example 340]
MMP-2
  Ki: 0.26 nM
MMP-9
  Ki: 0.222 nM

## CCN1CCC(C(=O)NO)(S(=O)(=O)N2CCN(c3ccc(-c4ccccc4)c(F)c3)CC2)CC1 [Example 341]
MMP-2
  Ki: 0.829 nM
MMP-9
  Ki: 3.77 nM

## O=C(NO)C1(S(=O)(=O)N2CCN(c3ccc(OCCCC(F)(F)F)cc3)CC2)CC(O)C1 (centres unmarked) [Example 342]
MMP-2
  Ki: 16.9 nM
MMP-9
  Ki: 108 nM

## O=C(NO)C1(S(=O)(=O)N2CCN(c3ncc(-c4ccc(Cl)cc4)s3)CC2)CCOCC1 [Example 343]
MMP-2
  Ki: 0.113 nM
MMP-9
  Ki: 0.489 nM

## Cc1ccc(-c2cnc(N3CCN(S(=O)(=O)C4(C(=O)NO)CCOCC4)CC3)s2)cc1 [Example 344]
MMP-2
  Ki: 0.177 nM
MMP-9
  Ki: 0.492 nM

## O=C(NO)C1(S(=O)(=O)N2CCN(c3ncc(-c4ccc(F)cc4)s3)CC2)CCOCC1 [Example 345]
MMP-2
  Ki: 0.169 nM
MMP-9
  Ki: 0.416 nM

## O=C(NO)C1(S(=O)(=O)N2CCN(c3ncc(-c4ccc(C(F)(F)F)cc4)s3)CC2)CCOCC1 [Example 346]
MMP-2
  Ki: 0.215 nM
MMP-9
  Ki: 2.05 nM

## CC(C)(C)c1ccc(-c2cnc(N3CCN(S(=O)(=O)C4(C(=O)NO)CCOCC4)CC3)s2)cc1 [Example 347]
MMP-2
  Ki: 8.57 nM
MMP-9
  Ki: 6.38 nM

## Cc1ccccc1-c1cnc(N2CCN(S(=O)(=O)C3(C(=O)NO)CCOCC3)CC2)s1 [Example 348]
MMP-2
  Ki: 4.61 nM
MMP-9
  Ki: 9.57 nM

## O=C(NO)C1(S(=O)(=O)N2CCC(c3ccc(OC(F)(F)C(F)(F)F)cc3)CC2)CCOCC1 [Example 349]
MMP-2
  Ki: 2.12 nM
MMP-9
  Ki: 29.2 nM

## O=C(NO)C1(S(=O)(=O)N2CCC(c3ccc(OCC(F)(F)C(F)F)cc3)CC2)CCN(C2CC2)CC1 [Example 350]
MMP-2
  Ki: 0.891 nM
MMP-9
  Ki: 1.21 nM

## O=C(NO)C1(S(=O)(=O)N2CCC(c3ccc(CCCC(F)(F)F)cc3)CC2)CCN(C2CC2)CC1 [Example 351]
MMP-2
  Ki: 1.26 nM
MMP-9
  Ki: 0.431 nM

## O=C(O)c1ccc(N2CCN(S(=O)(=O)C3(C(=O)NO)CCOCC3)CC2)cc1 [Example 352]
MMP-2
  Ki: 2130 nM
MMP-9
  Ki: 6610 nM

## O=C(NO)C1(S(=O)(=O)N2CCC(c3ccc(CCCC(F)(F)F)cc3)CC2)CCOCC1 [Example 353]
MMP-2
  Ki: 1.29 nM
MMP-9
  Ki: 0.546 nM

## CCCCOc1cccc(N2CCN(S(=O)(=O)C3(C(=O)NO)CCOCC3)CC2)c1 [Example 354]
MMP-2
  Ki: 89.4 nM
MMP-9
  Ki: 786 nM

## O=C(NO)C1(S(=O)(=O)N2CCN(c3cccc(OCCCC(F)(F)F)c3)CC2)CCOCC1 [Example 355]
MMP-2
  Ki: 38.3 nM
MMP-9
  Ki: 638 nM

## CCCCCc1cccc(N2CCN(S(=O)(=O)C3(C(=O)NO)CCOCC3)CC2)c1 [Example 356]
MMP-2
  Ki: 65.7 nM
MMP-9
  Ki: 184 nM

## O=C(NO)C1(S(=O)(=O)N2CCC(c3ccc(OCC(F)(F)F)cc3)CC2)CCOCC1 [Example 357]
MMP-2
  Ki: 0.919 nM
MMP-9
  Ki: 0.718 nM

## O=C(NO)C1(S(=O)(=O)N2CCN(c3ccc(CCCC(F)(F)F)cn3)CC2)CCOCC1 [Example 358]
MMP-2
  Ki: 0.281 nM
MMP-9
  Ki: 0.86 nM

## O=C(NO)C1(S(=O)(=O)N2CCN(c3ncc(-c4ccc(F)cc4F)s3)CC2)CCOCC1 [Example 359]
MMP-2
  Ki: 0.266 nM
MMP-9
  Ki: 1.21 nM

## O=C(NO)C1(S(=O)(=O)N2CCN(c3ncc(-c4ccc(-c5ccccc5)cc4)s3)CC2)CCOCC1 [Example 360]
MMP-2
  Ki: 0.395 nM
MMP-9
  Ki: 6.28 nM

## O=C(NO)C1(S(=O)(=O)N2CCN(c3ncc(/C=C/c4ccccc4)s3)CC2)CCOCC1 [Example 361]
MMP-2
  Ki: 1.37 nM and 1.39 nM
MMP-9
  Ki: 36.1 nM and 32.9 nM

## O=C(NO)C1(S(=O)(=O)N2CCN(c3ncc(-c4ccc5c(c4)OCO5)s3)CC2)CCOCC1 [Example 362]
MMP-2
  Ki: 0.333 nM
MMP-9
  Ki: 1.37 nM

## O=C(NO)C1(S(=O)(=O)N2CCN(c3ncc(-c4ccc([N+](=O)[O-])cc4)s3)CC2)CCOCC1 [Example 363]
MMP-2
  Ki: 0.056 nM
MMP-9
  Ki: 1.74 nM

## O=C(NO)C1(S(=O)(=O)N2CCN(c3ncc(-c4ccc(OC(F)(F)F)cc4)s3)CC2)CCOCC1 [Example 364]
MMP-2
  Ki: 0.187 nM
MMP-9
  Ki: 0.802 nM

## O=C(NO)C1(S(=O)(=O)N2CCN(c3ncc(-c4cccc(-c5ccccc5)c4)s3)CC2)CCOCC1 [Example 365]
MMP-2
  Ki: 201 nM
MMP-9
  Ki: 1240 nM

## CC(C)c1ccc(-c2cnc(N3CCN(S(=O)(=O)C4(C(=O)NO)CCOCC4)CC3)s2)cc1 [Example 366]
MMP-2
  Ki: 0.264 nM
MMP-9
  Ki: 2.44 nM

## O=C(NO)C1(S(=O)(=O)N2CCC(c3ccc(CCC(F)(F)F)cn3)CC2)CCOCC1 [Example 367]
MMP-2
  Ki: 0.978 nM
MMP-9
  Ki: 0.625 nM

## O=C(NO)C1(S(=O)(=O)N2CCN(c3ncc(-c4ccc(O)cc4)s3)CC2)CCOCC1 [Example 368]
MMP-2
  Ki: 0.225 nM
MMP-9
  Ki: 0.423 nM

## O=C(NO)C1(S(=O)(=O)N2CCN(c3ncc(-c4ccc(Cl)c(Cl)c4)s3)CC2)CCOCC1 [Example 369]
MMP-2
  Ki: 0.879 nM
MMP-9
  Ki: 22.7 nM

## Cc1cccc(-c2cnc(N3CCN(S(=O)(=O)C4(C(=O)NO)CCOCC4)CC3)s2)c1 [Example 370]
MMP-2
  Ki: 1.34 nM
MMP-9
  Ki: 9.1 nM

## COc1ccc(-c2cnc(N3CCN(S(=O)(=O)C4(C(=O)NO)CCOCC4)CC3)s2)cc1OC [Example 371]
MMP-2
  Ki: 4.14 nM
MMP-9
  Ki: 6.5 nM
